From the NIST ThermoML archive (doi:10.1021/acs.jced.8b01247)
± gives the expanded uncertainty stated by the source.

Tests used:
[1] = Boiling temperature at pressure P; details: Liquid, Ebulliometric method (Recirculating still)
[2] = 337.83 K; Liquid; Ebulliometric method (Recirculating still)

| Structure (SMILES) | Boiling temperature at pressure P ([1]; 101.3 kPa) [°C] | Boiling temperature at pressure P ([1]; 166.8 kPa) [°C] | Boiling temperature at pressure P ([1]; 217.3 kPa) [°C] | Boiling temperature at pressure P ([1]; 257 kPa) [°C] | Boiling temperature at pressure P ([1]; 313.1 kPa) [°C] | Boiling temperature at pressure P ([1]; 387.5 kPa) [°C] | vapor or sublimation pressure [2] [kPa] |
| --- | --- | --- | --- | --- | --- | --- | --- |
| CCC(C)OCOC (configuration not stated) [2-(methoxymethoxy)butane] | 109.7 ± 0.87 | 129.1 ± 1.3 | 139.94 ± 1.2 | 146.93 ± 1.2 | 155.67 ± 1.3 | 165.49 ± 1.5 |  |
| CO [methanol] |  |  |  |  |  |  | 101.3 ± 2.3 |
